Activity calls are given as the source filed them.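 The calls were made as follows: active = signal-lowering curve whose fitted AC50 is at or under twice the top valid dose of that sample; inconclusive = flat fit with a moderate drop, or a poor fit; inactive = the rest.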
system: not listed separately; experiment: A549 cell cytotoxicity, dose response, cytotoxicity control, CellTiter-Glo luminescence, dry powder, set 14 (AID 977620); details: A549 viability, CellTiter-Glo ATP luminescence, 72 h; at 30 µM (top of the series)

SMILES	activity change, negative = cytotoxicity
Cc1cnc(NC(=O)c2cc(S(=O)(=O)N(C)C)ccc2N(C)C)s1	-11.3% (inactive)
Cc1nc(NC(=O)c2cc(S(=O)(=O)N(C)C)ccc2N2CCCC2)n[nH]1	-5.15% (inactive)
COc1cccc2sc(NC(=O)c3cc(S(=O)(=O)N(C)C)ccc3N3CCCC3)nc12	-3.6% (inactive)
CN(C)CCCN(Cc1cc2ccccc2[nH]c1=O)C(=O)NCc1ccccc1	-11.2% (inactive)
CN(C)S(=O)(=O)c1ccc(N2CCCC2)c(C(=O)NC2CCCCC2)c1	-6.42% (inactive)
CN(C)S(=O)(=O)c1ccc(N2CCCC2)c(C(=O)Nc2cccnc2)c1	-10% (inactive)
COc1ccc(NC(=O)c2cc(S(=O)(=O)N(C)C)ccc2N2CCCC2)cc1	-10.6% (inactive)
COc1ccccc1NC(=O)c1cc(S(=O)(=O)N(C)C)ccc1N1CCCC1	-6.88% (inactive)
Cc1ccccc1NC(=O)c1cc(S(=O)(=O)N(C)C)ccc1N1CCCC1	-11.9% (inactive)
Cc1cnc(NC(=O)c2cc(S(=O)(=O)N(C)c3ccccc3)ccc2N2CCCC2)s1	0.919% (inactive)
CN(C)S(=O)(=O)c1ccc(N2CCCC2)c(C(=O)Nc2ccncc2)c1	-5.75% (inactive)
Cc1cnc(NC(=O)c2cccc(S(=O)(=O)N(C)C)c2)s1	3.41% (inactive)
CN(C)S(=O)(=O)c1ccc(N2CCCC2)c(C(=O)N2CCOCC2)c1	-6.88% (inactive)
CN(C)CCCN(Cc1cc2ccccc2[nH]c1=O)C(=O)Nc1ccccc1	-3.6% (inactive)
CN(C)C(=O)c1cc(S(=O)(=O)N(C)C)ccc1N1CCCC1	-2.1% (inactive)
Cc1cnc(NC(=O)c2cc(S(=O)(=O)N(C)C)ccc2N2CCNCC2)s1	-10.1% (inactive)
Cc1cnc(NC(=O)c2cc(S(=O)(=O)NCc3ccccc3)ccc2N2CCCC2)s1	-16.4% (inactive)
CN(C)S(=O)(=O)c1ccc(N2CCCC2)c(C(=O)Nc2ccccc2Cl)c1	-2.95% (inactive)
Cc1nnc(NC(=O)c2cc(S(=O)(=O)N(C)C)ccc2N2CCCC2)s1	-7.41% (inactive)
COc1ccc2nc(NC(=O)c3cc(S(=O)(=O)N(C)C)ccc3N3CCCC3)sc2c1	-22.2% (inactive)
CN(C)S(=O)(=O)c1ccc(N2CCCC2)c(C(=O)Nc2cccc(F)c2)c1	-13.3% (inactive)

system: A549 viability, CellTiter-Glo ATP luminescence, 72 h; experiment: as above; details: not given

SMILES	AC50
Cc1cnc(NC(=O)c2cc(S(=O)(=O)N3CCCCC3)ccc2N2CCCC2)s1	> 60 µM (inactive)
CN(C)S(=O)(=O)c1ccc(N2CCCC2)c(C(=O)Nc2ccccc2)c1	> 60 µM (inactive)
CCN(CC)S(=O)(=O)c1ccc(N2CCCC2)c(C(=O)Nc2ncc(C)s2)c1	> 60 µM (inactive)
Cc1cnc(NC(=O)c2cc(S(=O)(=O)N3CCNCC3)ccc2N2CCCC2)s1	> 60 µM (inactive)
Cc1cnc(NC(=O)c2cc(S(=O)(=O)N(C)C)ccc2N2CCC2)s1	> 60 µM (inactive)
Cc1cnc(NC(=O)c2cc(S(=O)(=O)N3CCOCC3)ccc2N2CCCC2)s1	23.3 µM
Cc1cnc(NC(=O)c2cc(S(=O)(=O)N(C)C)ccc2N2CCCCC2)s1	> 60 µM (inactive)
Cc1cnc(NC(=O)c2cc(S(=O)(=O)N(C)C)ccc2C2CCCC2)s1	> 60 µM (inactive)
CCN(CC)c1ccc(S(=O)(=O)N(C)C)cc1C(=O)Nc1ncc(C)s1	> 60 µM (inactive)
CN(C)S(=O)(=O)c1ccc(N2CCCC2)c(C(=O)Nc2nccs2)c1	> 60 µM (inactive)
COc1ccc2sc(NC(=O)c3cc(S(=O)(=O)N(C)C)ccc3N3CCCC3)nc2c1	> 60 µM (inactive)
Cc1ccc(NC(=O)c2cc(S(=O)(=O)N(C)C)ccc2N2CCCC2)cc1	> 60 µM (inactive)
CN(C)S(=O)(=O)c1ccc(N2CCCC2)c(C(=O)Nc2ccc(Br)cc2)c1	> 60 µM (inactive)
Cc1cnc(NC(=O)c2cc(S(=O)(=O)N(CC(C)C)CC(C)C)ccc2N2CCCC2)s1	> 60 µM (inactive)
CN(C)S(=O)(=O)c1ccc(N2CCCC2)c(C(=O)Nc2nc3ccccc3s2)c1	25.9 µM

From PubChem BioAssay AID977620 (Broad Institute, 2014)
